According to paper PMC10402871, “Design, synthesis and antiproliferative screening of newly synthesized acrylate derivatives as potential anticancer agents” (RSC Advances, 2023):
“And” between values parts separate entries of the source, which are not always exact repeats. Equal entries are not always repeated.

Columns and labels:
[1] = tested on: MCF-7 breast carcinoma cell line; assay: MTT cytotoxic activity against MCF-7 breast carcinoma cell line; assay type: cell-based; settings: Homo sapiens, MCF7; MTT assay, MCF-7 cells, 24 h incubation
Procedure: Cytotoxic activity of the synthesized acrylate derivatives 5a–6i was evaluated against the MCF-7 breast carcinoma cell line using the MTT colorimetric assay. CA-4 was included as a positive control. The results were summarized as IC50 values in Table 1.
Antiproliferative activity of the constructed acrylate molecules 5a–6i was determined on MCF-7 cell line as reported previously.[38] See ESI Appendix A. ^† […]
(§1) S4.2.1. Cytotoxic activity evaluation
To measure the cytotoxic actvity of the synthesized acrylate derivatives 5a,b and 6a-i in breast cancer (MCF-7) cell line. Cell viability assay was assessed using MTT assay method. Cells at density of 1 x 104 were seeded in a 96-well plate at 37 °C for 24 h under 5% CO2. After incubation, the cells were treated with different concentrations of the test acrylate derivatives 5a-6i and incubated for 24 h, then 20 µl of MTT solution at 5 mg/mL was applied and incubated for 4 h at 37 °C. Dimethyl sulphoxide (DMSO) in volume of 100 µl was added to each well to dissolve the purple formazan that had formed. The color intensity of the formazan product, which represents the growth condition of the cells, is quantified by using an ELISA plate reader (EXL 800, USA) at 570 nm absorbance. The experimental conditions were carried out with at least three replicates, and the experiments were repeated at least three times. […]

MCF-10A = assay: MTT cytotoxic activity against MCF-10A cells; assay type: cell-based; settings: Homo sapiens, MTT assay
[2] = tested on: MCF-7 breast carcinoma cells; assay: Annexin V-FITC/PI apoptosis assay in MCF-7 cells; assay type: cell-based; settings: 2.57 μM, 48 h
Procedure: as §1
(§2) To measure the cytotoxic actvity of the synthesized acrylate derivatives 5a,b and 6a-i in breast cancer (MCF-7) cell line. Cell viability assay was assessed using MTT assay method. Cells at density of 1 x 104 were seeded in a 96-well plate at 37 °C for 24 h under 5% CO2. After incubation, the cells were treated with different concentrations […]
(§3) solution at 5 mg/mL was applied and incubated for 4 h at 37 °C. Dimethyl sulphoxide (DMSO) in volume of 100 µl was added to each well to dissolve the purple formazan that had formed. The color intensity of the formazan product, which represents the growth condition of the cells, is quantified by using an ELISA plate reader (EXL 800, USA) at 570 nm absorbance. The experimental conditions were carried out with at least three replicates, and the experiments were repeated at least three times.
S4.2.2. Tubulin polymerization Assay […]
to manufacturer’s instructions using # abcam Human Beta-tubulin simplestep ELISA […]
(§4) S4.2.3. Cell cycle analysis of compound 6e
Cell cycle analysis in MCF-7 cells was investigated using fluorescent Annexin V-FITC/ PI detection kit (BioVision EZCellTM Cell Cycle Analysis Kit Catalog #K920) by flow cytometry assay. MCF-7 cells at a density of 2 × 10^5 per well were harvested and washed twice in PBS. […]
immediately analyzed using FACS Calibur flow cytometer (Becton and Dickinson, […]

Bax = assay: qRT-PCR gene expression of Bax in MCF-7 cells; assay type: cell-based; settings: 2.57 μM, 48 h
Source text: (§5) p53, Bax and Bcl-2 play a key role in controlling intrinsic mitochondrial cellular death.[36] […] During the apoptotic process, these mediators have opposing effects. p53 and Bax have proapoptotic impacts, while Bcl-2 has anti-apoptotic effects. […] This assay utilized the quantitative real time reverse transcriptase PCR (qRT-PCR) assay. […] On the other hand, compound 6e decreased the level of anti-apoptotic gene Bcl-2 level by 0.38-fold less than untreated cells.
(§6) The MCF-7 cell line was used for measurement of the expression levels of Apoptotic markers. […]
(§7) S4.2.5. qRT-PCR measurements of p53, Bax and Bcl2 for compound 6e
(§8) Real-time PCR for p53, BAX and Bcl-2 genes expression was done using commercial Qiagen RNA extraction/ BioRad SYBER green PCR master mix according manufacturer's instructions. Briefly, 2 µl of cDNA template, 10 pMol of each forward and reverse primer, 10 µl of 2X Master Mix and to 20 µl total reaction mixture volume by nuclease free water and then was introduced to thermal cycler instrument (Thermo Scientific, USA). The cycling parameters for the PCR amplification were achieved by initial denaturation at 95 °C for 3 minutes followed by 40 cycles of 94 °C for 15 seconds and annealing/extension step at 60 °C for 1 min. Relative quantification of target genes was run on Rotor-Gene 6000 Series Software 1.7 (Build […]
(§9) Table 1: The primer sequences for Real Time PCR assay

Bax/Bcl-2 = Bax/Bcl-2 ratio from qRT-PCR in MCF-7 cells; assay type: cell-based; settings: 2.57 μM, 48 h
Source text: as §5, §6, §7, §8, §9

[3] = tested on: MCF-7 breast carcinoma cells; assay: Flow cytometric cell cycle analysis of MCF-7 cells; assay type: cell-based; settings: 2.57 μM, 48 h
Procedure: The MCF-7 cell line was used for cell cycle analysis. Assay was carried out as reported previously.[39] See ESI Appendix A. ^† […]
as §1
To measure the cytotoxic actvity of the synthesized acrylate derivatives 5a,b and 6a-i in breast cancer (MCF-7) cell line. Cell viability assay was assessed using MTT assay method. Cells at density of 1 x 104 were seeded in a 96-well plate at 37 °C for 24 h under 5% CO2. After incubation, the cells were treated with different concentrations of the test acrylate derivatives 5a-6i and incubated for 24 h, then 20 µl of MTT solution at 5 mg/mL was applied and incubated for 4 h at 37 °C. Dimethyl sulphoxide (DMSO) in volume of 100 µl was added to each well to dissolve the purple formazan that had formed. The color intensity of the formazan product, which represents the growth condition of the cells, is quantified by using an ELISA plate reader (EXL 800, USA) at 570 nm absorbance. The experimental conditions were carried out with at least three replicates, and the experiments were repeated at least three times.
(§10) S4.2.2. Tubulin polymerization Assay
Compound 6e and CA-4 were evaluated for their tubulin inhibitory activity according to manufacturer’s instructions using # abcam Human Beta-tubulin simplestep ELISA […]
as §4
Cell cycle analysis in MCF-7 cells was investigated using fluorescent Annexin V-FITC/ PI detection kit (BioVision EZCellTM Cell Cycle Analysis Kit Catalog #K920) by flow cytometry assay. MCF-7 cells at a density of 2 × 10^5 per well were harvested and washed twice in PBS. After that, the cells were incubated at 37 °C and 5% CO2.
The medium was incubated with the tested compound 6e at ita IC50 (µM) for 48 h, washed twice in PBS, fixed with 70% ethanol, rinsed again with PBS. Afterward, medium was stained with DNA fluorochrome PI for 15 min at 37 °C. The samples were immediately analyzed using Facs Calibur flow cytometer (Becton and Dickinson, Heidelberg, Germany).
S4.2.4. Apoptosis assay for compound 6e […]

Bcl-2 = assay: qRT-PCR gene expression of Bcl-2 in MCF-7 cells; assay type: cell-based; settings: 2.57 μM, 48 h
Source text: as §5, §6, §7, §8, §9

β-tubulin = molecular target: T1, β-tubulin (Homo sapiens, UniProt P07437); assay: β-tubulin polymerization inhibition in MCF-7 cells (Human Beta-tubulin SimpleStep ELISA kit); assay type: cell-based; settings: 48 h; for β-tubulin polymerization inhibition percentage: at IC50 concentration
T1 construct: utilizing MCF-7 breast carcinoma cells; endogenous in cells; host or cells: MCF-7 breast carcinoma cells
Source text: The disruption of the cellular microtubule structure and, more importantly, microtubule function that result from inhibiting β-tubulin polymerization leads to the triggering of cellular apoptosis.[30,31] Inhibition of tubulin polymerization has been identified as a possible therapeutic target for the creation of new cancer therapies.[32]
as §1, §2, §3, §10

p53 = assay: qRT-PCR gene expression of p53 in MCF-7 cells; assay type: cell-based; settings: 2.57 μM, 48 h
Source text: as §5, §6, §7, §8, §9

T1 sequence (P07437 whole entry): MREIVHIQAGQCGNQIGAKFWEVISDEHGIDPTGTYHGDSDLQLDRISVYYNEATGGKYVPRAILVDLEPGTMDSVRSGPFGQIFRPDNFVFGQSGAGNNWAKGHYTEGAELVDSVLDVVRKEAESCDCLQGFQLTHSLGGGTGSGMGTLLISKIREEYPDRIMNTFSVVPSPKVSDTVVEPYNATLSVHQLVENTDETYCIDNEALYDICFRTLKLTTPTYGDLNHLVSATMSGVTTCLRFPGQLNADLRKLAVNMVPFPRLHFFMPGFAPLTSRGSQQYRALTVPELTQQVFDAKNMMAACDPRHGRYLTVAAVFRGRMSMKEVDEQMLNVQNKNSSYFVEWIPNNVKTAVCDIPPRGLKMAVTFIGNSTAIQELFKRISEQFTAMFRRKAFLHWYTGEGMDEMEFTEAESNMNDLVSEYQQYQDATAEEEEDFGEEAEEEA
T1 sequence (P68363 whole entry partner): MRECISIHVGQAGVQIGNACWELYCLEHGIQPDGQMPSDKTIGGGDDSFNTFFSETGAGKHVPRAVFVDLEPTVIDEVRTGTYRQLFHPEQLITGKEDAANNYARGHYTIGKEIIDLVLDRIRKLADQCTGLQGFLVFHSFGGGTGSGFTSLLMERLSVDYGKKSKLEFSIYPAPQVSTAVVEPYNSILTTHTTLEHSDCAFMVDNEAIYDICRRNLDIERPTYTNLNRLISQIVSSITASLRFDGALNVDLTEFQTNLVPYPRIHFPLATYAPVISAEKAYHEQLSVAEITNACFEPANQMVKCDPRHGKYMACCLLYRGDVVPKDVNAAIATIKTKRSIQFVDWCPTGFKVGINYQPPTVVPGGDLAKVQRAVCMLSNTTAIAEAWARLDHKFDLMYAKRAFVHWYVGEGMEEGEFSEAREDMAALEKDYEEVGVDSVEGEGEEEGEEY

| melting point | SMILES | IC50 [1] | also measured |
| --- | --- | --- | --- |
| 201 to 203 °C | COc1ccc(C(=O)N/C(=C\c2ccc(OC)c(OC)c2OC)C(=O)O)cc1OC [5a, (Z)-2-(3,4-Dimethoxybenzamido)-3-(2,3,4-trimethoxyphenyl)acrylic acid] | 9.31 ± 0.35 µM | – |
| 217 to 219 °C | COc1cc(C(=O)N/C(=C\c2ccc(OC)c(OC)c2OC)C(=O)O)cc(OC)c1OC [5b, (Z)-2-(3,4,5-Trimethoxybenzamido)-3-(2,3,4-trimethoxyphenyl)acrylic acid] | 5.12 ± 0.32 µM | – |
| 177 to 179 °C | COC(=O)/C(=C/c1ccc(OC)c(OC)c1OC)NC(=O)c1ccc(OC)c(OC)c1 [6a, (Z)-Methyl 2-(3,4-dimethoxybenzamido)-3-(2,3,4-trimethoxyphenyl)acrylate] | 6.74 ± 0.78 µM | – |
| 154 to 156 °C | CCOC(=O)/C(=C/c1ccc(OC)c(OC)c1OC)NC(=O)c1ccc(OC)c(OC)c1 [6b, (Z)-Ethyl 2-(3,4-dimethoxybenzamido)-3-(2,3,4-trimethoxyphenyl)acrylate] | 17.1 ± 0.49 µM | – |
| 119 to 121 °C | CCCOC(=O)/C(=C/c1ccc(OC)c(OC)c1OC)NC(=O)c1ccc(OC)c(OC)c1 [6c, (Z)-Propyl 2-(3,4-dimethoxybenzamido)-3-(2,3,4-trimethoxyphenyl)acrylate] | 20.3 ± 0.44 µM | – |
| 132 to 134 °C | CCCCOC(=O)/C(=C/c1ccc(OC)c(OC)c1OC)NC(=O)c1ccc(OC)c(OC)c1 [6d, (Z)-Butyl 2-(3,4-dimethoxybenzamido)-3-(2,3,4-trimethoxyphenyl)acrylate] | 42.1 ± 0.96 µM | – |
| – | COC(=O)/C(=C/c1ccc(OC)c(OC)c1OC)NC(=O)c1cc(OC)c(OC)c(OC)c1 [6e, (Z)-Methyl 2-(3,4,5-trimethoxybenzamido)-3-(2,3,4-trimethoxyphenyl)acrylate] | 2.57 ± 0.16 µM | IC50 (MCF-10A): 19.1 ± 0.31 µM; late stage apoptotic cells ([2]; control 0.24%): 23.28%; early stage apoptotic cells ([2]; control 0.38%): 14.55%; Bax gene expression level, fold relative to untreated control cells (Bax): 3.99 fold; increase of the ratio of Bax/Bcl-2 compared to untreated cells (Bax/Bcl-2): 10.5 fold; cell population in G2/M phase ([3]; control 8.20%): 29.96%; cell population in S phase ([3]; control 26.88%): 22.06%; cell population in G1 phase ([3]; control 54.92%): 47.98%; Bcl-2 gene expression level, fold relative to untreated cells (decrease) (Bcl-2): 0.38 fold; fold decrease in the level of β-tubulin polymerization compared to untreated control cells (β-tubulin; 2.57 μM): 5.73 fold; β-tubulin polymerization inhibition percentage (β-tubulin): 81.16%; p53 gene expression level, fold relative to untreated control cells (p53): 6.18 fold |
| 127 to 129 °C | CCOC(=O)/C(=C/c1ccc(OC)c(OC)c1OC)NC(=O)c1cc(OC)c(OC)c(OC)c1 [6f, (Z)-Ethyl 2-(3,4,5-trimethoxybenzamido)-3-(2,3,4-trimethoxyphenyl)acrylate] | 3.26 ± 0.21 µM | – |
| 111 to 113 °C | CCCOC(=O)/C(=C/c1ccc(OC)c(OC)c1OC)NC(=O)c1cc(OC)c(OC)c(OC)c1 [6g, (Z)-Propyl 2-(3,4,5-trimethoxybenzamido)-3-(2,3,4-trimethoxyphenyl)acrylate] | 11.3 ± 0.75 µM | – |
| 105 to 107 °C | COc1cc(C(=O)N/C(=C\c2ccc(OC)c(OC)c2OC)C(=O)OC(C)C)cc(OC)c1OC [6h, (Z)-Isopropyl 2-(3,4,5-trimethoxybenzamido)-3-(2,3,4-trimethoxyphenyl)acrylate] | 7.08 ± 0.29 µM | – |
| 118 to 120 °C | CCCCOC(=O)C(=Cc1ccc(OC)c(OC)c1OC)NC(=O)c1cc(OC)c(OC)c(OC)c1 [6i, Butyl 2-(3,4,5-trimethoxybenzamido)-3-(2,3,4-trimethoxyphenyl)acrylate] | 33 ± 1.03 µM | – |
| – | COc1ccc(/C=C\c2cc(OC)c(OC)c(OC)c2)cc1O [CA-4, combretastatin A-4, reference compound] | 1.25 ± 0.08 µM | IC50 (MCF-10A): 13.2 ± 0.19 µM; β-tubulin polymerization inhibition percentage (β-tubulin): 89.17% and 82.82% |
